# Data taken from US6737383B1, “Herbicidal oxadiazolidines” (priority 1999, dated 2004).
# What was measured:
# corn = assay: Test B pre/postemergence corn; format: in vivo, Zea mays
# Summary of the method: (§1)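 Test chemicals in a non-phytotoxic solvent mixture with surfactant were sprayed preemergence onto planted seeds and postemergence onto plants 2 to 18 cm tall (1- to 4-leaf stage). After twelve to sixteen days in a greenhouse, injury was visually rated against untreated controls from 0 (no effect) to 10 (complete control).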
# sugar beet = assay: Test B pre/postemergence sugar beet; format: in vivo, Beta vulgaris
# Summary of the method: as §1
# morningglory = assay: Test B pre/postemergence morningglory; format: in vivo, Ipomoea hederacea
# Summary of the method: as §1
# surinam grass = assay: Test B pre/postemergence surinam grass; format: in vivo, Brachiaria decumbens
# Summary of the method: as §1
# cocklebur = assay: Test B pre/postemergence cocklebur; format: in vivo, Xanthium strumarium
# Summary of the method: as §1
# giant foxtail = assay: Test B pre/postemergence giant foxtail; format: in vivo, Setaria faberii
# Summary of the method: as §1
# rice = assay: Test B flood test rice; format: in vivo, Oryza sativa
# Summary of the method: (§2)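 Each value is a visual injury score relative to controls, with 10 meaning complete control and 0 no effect. Evaluation took place twelve to sixteen days after the 2-leaf-stage plants were treated and kept in the greenhouse.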
# crabgrass = assay: Test B pre/postemergence crabgrass; format: in vivo, Digitaria sanguinalis
# Summary of the method: as §1
# pigweed = assay: Test B pre/postemergence pigweed; format: in vivo, Amaranthus retroflexus
# Summary of the method: as §1
# blackgrass = assay: Test B pre/postemergence blackgrass; format: in vivo, Alopecurus myosuroides
# Summary of the method: as §1
# bedstraw = assay: Test B pre/postemergence bedstraw; format: in vivo, Galium aparine
# Summary of the method: as §1
# smallflower flatsedge = assay: Test B flood test smallflower flatsedge; format: in vivo, Cyperus difformis
# Summary of the method: as §2
# wild oat = assay: Test B pre/postemergence wild oat; format: in vivo, Avena fatua
# Summary of the method: as §1
# soybean = assay: Test B pre/postemergence soybean; format: in vivo, Glycine max
# Summary of the method: as §1
# purple nutsedge = assay: Test B pre/postemergence purple nutsedge; format: in vivo, Cyperus rotundus
# Summary of the method: as §1
# duck salad = assay: Test B flood test duck salad; format: in vivo, Heteranthera limosa
# Summary of the method: as §2
# [1] = Preemergence, Rate 62 g/ha, scale of 0 to 10 where 0 is no effect and 10 is complete control
# [2] = Preemergence, Rate 250 g/ha, scale of 0 to 10 where 0 is no effect and 10 is complete control
# [3] = Preemergence, Rate 500 g/ha, scale of 0 to 10 where 0 is no effect and 10 is complete control
# [4] = Rate 62 g/ha, Postemergence, scale of 0 to 10 where 0 is no effect and 10 is complete control
# [5] = Rate 125 g/ha, Postemergence, scale 0 to 10
# [6] = Rate 125 g/ha, Preemergence, scale of 0 to 10 where 0 is no effect and 10 is complete control
# [7] = Rate 500 g/ha, Postemergence, scale 0 to 10, 0 no effect, 10 complete control
# [8] = Rate 62 g/ha, headed Pre-emergence (flood test species), scale 0 to 10 (0 no effect, 10 complete control)
# [9] = Rate 125 g/ha, Pre-emergence, flood test species, scale 0 to 10 where 0 is no effect and 10 is complete control
# [10] = Rate 250 g/ha, Pre-emergence, flood-test species, scale 0 to 10, 0 is no effect, 10 is complete control
# [11] = Rate 500 g/ha, Pre-emergence, flood test species, scale 0 to 10 (0 no effect, 10 complete control)
compound,measurement,setting,value
CC(C)N(C(=O)n1oc(=O)n(-c2cccnc2)c1=O)c1ccc(F)cc1 [Compound 234],Corn plant response rating,corn; [1],0
same,Corn plant response rating,corn; [2],0
same,"Plant response rating, Corn",corn; [3],0
same,Corn plant response rating,corn; [4],0
same,Corn plant response rating,corn; [5],0
same,Corn plant response rating,corn; [6],0
same,"Plant response rating (0 to 10; 0 is no effect, 10 is complete control), Corn","corn; Rate 250 g/ha, Postemergence",0
same,Corn plant response rating,corn; [7],0
same,Sugarbeets plant response rating,sugar beet; [1],0
same,Sugarbeets plant response rating,sugar beet; [2],0
same,"Plant response rating, Sugarbeets",sugar beet; [3],0
same,Sugarbeets plant response rating,sugar beet; [4],0
same,Sugarbeets plant response rating,sugar beet; [5],0
same,Sugarbeets plant response rating,sugar beet; [6],0
same,"Plant response rating (0 to 10; 0 is no effect, 10 is complete control), Sugarbeets","sugar beet; Rate 250 g/ha, Postemergence",0
same,Sugarbeets plant response rating,sugar beet; [7],0
same,Morningglory plant response rating,morningglory; [1],0
same,Morningglory plant response rating,morningglory; [2],0
same,"Plant response rating, Morningglory",morningglory; [3],0
same,Morningglory plant response rating,morningglory; [4],0
same,Morningglory plant response rating,morningglory; [5],0
same,Morningglory plant response rating,morningglory; [6],0
same,"Plant response rating (0 to 10; 0 is no effect, 10 is complete control), Morningglory","morningglory; Rate 250 g/ha, Postemergence",1
same,Morningglory plant response rating,morningglory; [7],2
same,B. signalgrass plant response rating,surinam grass; [1],0
same,B. signalgrass plant response rating,"surinam grass; Preemergence, Rate 250 g/ha, scale 0 to 10, 0 is no effect, 10 is complete control",0
same,"Plant response rating, B. signalgrass",surinam grass; [3],0
same,B. signalgrass plant response rating,surinam grass; [4],0
same,B. signalgrass plant response rating,"surinam grass; Rate 125 g/ha, Postemergence, scale 0 (no effect) to 10 (complete control)",0
same,B. signalgrass plant response rating,surinam grass; [6],0
same,"Plant response rating (0 to 10; 0 is no effect, 10 is complete control), B. signalgrass","surinam grass; Rate 250 g/ha, Postemergence",0
same,B. signalgrass plant response rating,surinam grass; [7],0
same,Cocklebur plant response rating,cocklebur; [1],0
same,Cocklebur plant response rating,cocklebur; [2],0
same,"Plant response rating, Cocklebur",cocklebur; [3],0
same,Cocklebur plant response rating,cocklebur; [4],0
same,Cocklebur plant response rating,cocklebur; [5],0
same,Cocklebur plant response rating,cocklebur; [6],0
same,"Plant response rating (0 to 10; 0 is no effect, 10 is complete control), Cocklebur","cocklebur; Rate 250 g/ha, Postemergence",0
same,Cocklebur plant response rating,cocklebur; [7],3
same,Giant foxtail plant response rating,giant foxtail; [1],0
same,Giant foxtail plant response rating,giant foxtail; [2],0
same,"Plant response rating, Giant foxtail",giant foxtail; [3],0
same,Giant foxtail plant response rating,giant foxtail; [4],0
same,Giant foxtail plant response rating,giant foxtail; [5],0
same,Giant foxtail plant response rating,giant foxtail; [6],0
same,"Plant response rating (0 to 10; 0 is no effect, 10 is complete control), Giant foxtail","giant foxtail; Rate 250 g/ha, Postemergence",0
same,Giant foxtail plant response rating,giant foxtail; [7],0
same,Rice plant response rating,rice; [8],0
same,Rice plant response rating,rice; [9],0
same,Rice plant response rating,rice; [10],0
same,Rice plant response rating,rice; [11],0
same,Crabgrass plant response rating,crabgrass; [1],0
same,Crabgrass plant response rating,crabgrass; [2],0
same,"Plant response rating, Crabgrass",crabgrass; [3],0
same,Crabgrass plant response rating,crabgrass; [4],0
same,Crabgrass plant response rating,crabgrass; [5],0
same,Crabgrass plant response rating,crabgrass; [6],0
same,"Plant response rating (0 to 10; 0 is no effect, 10 is complete control), Crabgrass","crabgrass; Rate 250 g/ha, Postemergence",0
same,Crabgrass plant response rating,crabgrass; [7],0
same,Redroot pigweed plant response rating,pigweed; [1],0
same,Redroot pigweed plant response rating,pigweed; [2],0
same,"Plant response rating, Redroot pigweed",pigweed; [3],0
same,Redroot pigweed plant response rating,pigweed; [4],0
same,Redroot pigweed plant response rating,pigweed; [5],0
same,Redroot pigweed plant response rating,pigweed; [6],0
same,"Plant response rating (0 to 10; 0 is no effect, 10 is complete control), Redroot pigweed","pigweed; Rate 250 g/ha, Postemergence",0
same,Redroot pigweed plant response rating,pigweed; [7],0
same,Blackgrass plant response rating,blackgrass; [1],0
same,Blackgrass plant response rating,blackgrass; [2],0
same,"Plant response rating, Blackgrass",blackgrass; [3],0
same,Blackgrass plant response rating,blackgrass; [4],0
same,Blackgrass plant response rating,blackgrass; [5],0
same,Blackgrass plant response rating,blackgrass; [6],0
same,"Plant response rating (0 to 10; 0 is no effect, 10 is complete control), Blackgrass","blackgrass; Rate 250 g/ha, Postemergence",0
same,Blackgrass plant response rating,blackgrass; [7],0
same,Bedstraw plant response rating,bedstraw; [1],0
same,Bedstraw plant response rating,bedstraw; [2],0
same,"Plant response rating, Bedstraw",bedstraw; [3],0
same,Bedstraw plant response rating,bedstraw; [4],0
same,Bedstraw plant response rating,bedstraw; [5],0
same,Bedstraw plant response rating,bedstraw; [6],0
same,"Plant response rating (0 to 10; 0 is no effect, 10 is complete control), Bedstraw","bedstraw; Rate 250 g/ha, Postemergence",0
same,Bedstraw plant response rating,bedstraw; [7],0
same,S. Flatsedge plant response rating,smallflower flatsedge; [8],0
same,S. Flatsedge plant response rating,smallflower flatsedge; [9],0
same,S. Flatsedge plant response rating,smallflower flatsedge; [10],0
same,S. Flatsedge plant response rating,smallflower flatsedge; [11],0
same,Wild oats plant response rating,wild oat; [1],0
same,Wild oats plant response rating,wild oat; [2],0
same,"Plant response rating, Wild oats",wild oat; [3],0
same,Wild oats plant response rating,wild oat; [4],0
same,Wild oats plant response rating,wild oat; [5],0
same,Wild oats plant response rating,wild oat; [6],0
same,"Plant response rating (0 to 10; 0 is no effect, 10 is complete control), Wild oats","wild oat; Rate 250 g/ha, Postemergence",0
same,Wild oats plant response rating,wild oat; [7],0
same,Soybean plant response rating,soybean; [1],0
same,Soybean plant response rating,soybean; [2],0
same,"Plant response rating, Soybean",soybean; [3],0
same,Soybean plant response rating,soybean; [4],0
same,Soybean plant response rating,soybean; [5],0
same,Soybean plant response rating,soybean; [6],0
same,"Plant response rating (0 to 10; 0 is no effect, 10 is complete control), Soybean","soybean; Rate 250 g/ha, Postemergence",0
same,Soybean plant response rating,soybean; [7],1
same,"Plant response rating, Nutsedge",purple nutsedge; [3],0
same,Nutsedge plant response rating,purple nutsedge; [4],0
same,Nutsedge plant response rating,purple nutsedge; [5],0
same,"Plant response rating (0 to 10; 0 is no effect, 10 is complete control), Nutsedge","purple nutsedge; Rate 250 g/ha, Postemergence",0
same,Nutsedge plant response rating,purple nutsedge; [7],0
same,Ducksalad plant response rating,duck salad; [8],0
same,Ducksalad plant response rating,duck salad; [9],0
same,Ducksalad plant response rating,duck salad; [10],0
same,Ducksalad plant response rating,duck salad; [11],0
